According to PubChem BioAssay (NCI):
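Exposure lasted 48 hours, with cells grown in 96-well plates and compounds tested at five concentrations. TGI marks complete inhibition of growth.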

Legend:
Test in all cases: NCI tumour cell line growth inhibition, 48 h
PC-3 prostate = test system: PC-3 prostate
RPMI-8226 leukemia = test system: RPMI-8226 leukemia
SW-620 colon = test system: SW-620 colon
BT-549 breast = test system: BT-549 breast
OVCAR-8 ovarian = test system: OVCAR-8 ovarian
SF-295 CNS = test system: SF-295 CNS
NCI/ADR-RES ovarian = test system: NCI/ADR-RES ovarian
MDA-MB-231 breast = test system: MDA-MB-231 breast
T-47D breast = test system: T-47D breast
M14 melanoma = test system: M14 melanoma
OVCAR-5 ovarian = test system: OVCAR-5 ovarian
DU-145 prostate = test system: DU-145 prostate
HOP-92 NSCLC = test system: HOP-92 NSCLC
UACC-62 melanoma = test system: UACC-62 melanoma
U251 CNS = test system: U251 CNS
SR leukemia = test system: SR leukemia
NCI-H23 lung = test system: NCI-H23 lung
OVCAR-4 ovarian = test system: OVCAR-4 ovarian
SNB-19 CNS = test system: SNB-19 CNS
IGROV1 ovarian = test system: IGROV1 ovarian
SK-MEL-28 melanoma = test system: SK-MEL-28 melanoma
EKVX NSCLC = test system: EKVX NSCLC
HT29 colon = test system: HT29 colon
HCC-2998 colon = test system: HCC-2998 colon
CCRF-CEM leukemia = test system: CCRF-CEM leukemia
MDA-N = test system: MDA-N
HCT-15 colon = test system: HCT-15 colon
MALME-3M melanoma = test system: MALME-3M melanoma
SK-OV-3 ovarian = test system: SK-OV-3 ovarian
MCF7 breast = test system: MCF7 breast
SF-268 CNS = test system: SF-268 CNS
NCI-H226 lung = test system: NCI-H226 lung
HS 578T breast = test system: HS 578T breast
HL-60(TB) leukemia = test system: HL-60(TB) leukemia
OVCAR-3 ovarian = test system: OVCAR-3 ovarian
COLO 205 colon = test system: COLO 205 colon
KM12 colon = test system: KM12 colon
SK-MEL-2 melanoma = test system: SK-MEL-2 melanoma
TK-10 renal = test system: TK-10 renal
A498 renal = test system: A498 renal
LOX IMVI melanoma = test system: LOX IMVI melanoma
A549 NSCLC = test system: A549 NSCLC
HCT-116 colon = test system: HCT-116 colon
NCI-H460 lung = test system: NCI-H460 lung
ACHN renal = test system: ACHN renal
SF-539 CNS = test system: SF-539 CNS
MDA-MB-435 = test system: MDA-MB-435
K-562 leukemia = test system: K-562 leukemia
SNB-75 CNS = test system: SNB-75 CNS
SK-MEL-5 melanoma = test system: SK-MEL-5 melanoma
CAKI-1 renal = test system: CAKI-1 renal
UO-31 renal = test system: UO-31 renal
786-0 renal = test system: 786-0 renal
MOLT-4 leukemia = test system: MOLT-4 leukemia
RXF 393 renal = test system: RXF 393 renal
UACC-257 melanoma = test system: UACC-257 melanoma
SN12C renal = test system: SN12C renal
HOP-62 NSCLC = test system: HOP-62 NSCLC
NCI-H522 lung = test system: NCI-H522 lung

CN(C(=O)CCC(=O)O)c1ccccc1C(=O)O
TGI (PC-3 prostate): > 100 µM
TGI (RPMI-8226 leukemia): > 100 µM
TGI (SW-620 colon): > 100 µM
TGI (BT-549 breast): > 100 µM
TGI (OVCAR-8 ovarian): > 100 µM
TGI (SF-295 CNS): > 100 µM
TGI (NCI/ADR-RES ovarian): > 100 µM
TGI (MDA-MB-231 breast): > 100 µM
TGI (T-47D breast): > 100 µM
TGI (M14 melanoma): > 100 µM
TGI (OVCAR-5 ovarian): > 100 µM
TGI (DU-145 prostate): > 100 µM
TGI (HOP-92 NSCLC): > 100 µM
TGI (UACC-62 melanoma): > 100 µM
TGI (U251 CNS): > 100 µM
TGI (SR leukemia): > 100 µM
TGI (NCI-H23 lung): > 100 µM
TGI (OVCAR-4 ovarian): > 100 µM
TGI (SNB-19 CNS): > 100 µM
TGI (IGROV1 ovarian): > 100 µM
TGI (SK-MEL-28 melanoma): > 100 µM
TGI (EKVX NSCLC): > 100 µM
TGI (HT29 colon): > 100 µM
TGI (HCC-2998 colon): > 100 µM
TGI (CCRF-CEM leukemia): > 100 µM
TGI (MDA-N): > 100 µM
TGI (HCT-15 colon): > 100 µM
TGI (MALME-3M melanoma): > 100 µM
TGI (SK-OV-3 ovarian): > 100 µM
TGI (MCF7 breast): > 100 µM
TGI (SF-268 CNS): > 100 µM
TGI (NCI-H226 lung): > 100 µM
TGI (HS 578T breast): > 100 µM
TGI (HL-60(TB) leukemia): > 100 µM
TGI (OVCAR-3 ovarian): > 100 µM
TGI (COLO 205 colon): > 100 µM
TGI (KM12 colon): > 100 µM
TGI (SK-MEL-2 melanoma): > 100 µM
TGI (TK-10 renal): > 100 µM
TGI (A498 renal): > 100 µM
TGI (LOX IMVI melanoma): > 100 µM
TGI (A549 NSCLC): > 100 µM
TGI (HCT-116 colon): > 100 µM
TGI (NCI-H460 lung): > 100 µM
TGI (ACHN renal): > 100 µM
TGI (SF-539 CNS): > 100 µM
TGI (MDA-MB-435): > 100 µM
TGI (K-562 leukemia): > 100 µM
TGI (SNB-75 CNS): > 100 µM
TGI (SK-MEL-5 melanoma): > 100 µM
TGI (CAKI-1 renal): > 100 µM
TGI (UO-31 renal): > 100 µM
TGI (786-0 renal): > 100 µM
TGI (MOLT-4 leukemia): > 100 µM
TGI (RXF 393 renal): > 100 µM
TGI (UACC-257 melanoma): > 100 µM

CCOC(=O)c1cn2c(n1)sc1cc(C)c(C)cc12
TGI (PC-3 prostate): 45.7 µM
TGI (RPMI-8226 leukemia): 82.7 µM
TGI (SW-620 colon): 65.1 µM
TGI (BT-549 breast): 72.4 µM
TGI (OVCAR-8 ovarian): 52.3 µM
TGI (SF-295 CNS): > 100 µM
TGI (NCI/ADR-RES ovarian): 67.5 µM
TGI (MDA-MB-231 breast): 58.4 µM
TGI (T-47D breast): 62.1 µM
TGI (M14 melanoma): 85.2 µM
TGI (OVCAR-5 ovarian): 36.4 µM
TGI (DU-145 prostate): 48.8 µM
TGI (HOP-92 NSCLC): 65.4 µM
TGI (UACC-62 melanoma): > 100 µM
TGI (U251 CNS): 41.2 µM
TGI (SR leukemia): > 100 µM
TGI (NCI-H23 lung): > 100 µM
TGI (OVCAR-4 ovarian): > 100 µM
TGI (SNB-19 CNS): 42.9 µM
TGI (IGROV1 ovarian): 56.5 µM
TGI (SK-MEL-28 melanoma): 48.4 µM
TGI (EKVX NSCLC): 61.7 µM
TGI (HT29 colon): 33.8 µM
TGI (HCC-2998 colon): > 100 µM
TGI (CCRF-CEM leukemia): > 100 µM
TGI (MDA-N): 22 µM
TGI (HCT-15 colon): > 100 µM
TGI (MALME-3M melanoma): 35.1 µM
TGI (SK-OV-3 ovarian): 69.2 µM
TGI (MCF7 breast): > 100 µM
TGI (SF-268 CNS): 52.7 µM
TGI (NCI-H226 lung): 44.9 µM
TGI (HS 578T breast): 79.3 µM
TGI (OVCAR-3 ovarian): 32.5 µM
TGI (COLO 205 colon): 55 µM
TGI (KM12 colon): > 100 µM
TGI (SK-MEL-2 melanoma): > 100 µM
TGI (TK-10 renal): 57.1 µM
TGI (SN12C renal): 36.8 µM
TGI (A498 renal): 32.6 µM
TGI (LOX IMVI melanoma): > 100 µM
TGI (HOP-62 NSCLC): 34.3 µM
TGI (NCI-H522 lung): 94.4 µM
TGI (A549 NSCLC): 38.2 µM
TGI (HCT-116 colon): 33.7 µM
TGI (NCI-H460 lung): > 100 µM
TGI (ACHN renal): 35.3 µM
TGI (SF-539 CNS): 29.6 µM
TGI (MDA-MB-435): > 100 µM
TGI (K-562 leukemia): > 100 µM
TGI (SNB-75 CNS): 44.8 µM
TGI (SK-MEL-5 melanoma): 32.1 µM
TGI (CAKI-1 renal): 39.4 µM
TGI (UO-31 renal): 35.4 µM
TGI (786-0 renal): 34.9 µM
TGI (MOLT-4 leukemia): 91.1 µM
TGI (RXF 393 renal): 51.2 µM
TGI (UACC-257 melanoma): > 100 µM

O=C(O)CSc1ccc(N=C=S)cc1
TGI (PC-3 prostate): > 100 µM
TGI (RPMI-8226 leukemia): 57.1 µM
TGI (SW-620 colon): > 100 µM
TGI (BT-549 breast): > 100 µM
TGI (OVCAR-8 ovarian): > 100 µM
TGI (SF-295 CNS): > 100 µM
TGI (NCI/ADR-RES ovarian): > 100 µM
TGI (MDA-MB-231 breast): > 100 µM
TGI (T-47D breast): > 100 µM
TGI (M14 melanoma): > 100 µM
TGI (OVCAR-5 ovarian): > 100 µM
TGI (DU-145 prostate): > 100 µM
TGI (HOP-92 NSCLC): > 100 µM
TGI (UACC-62 melanoma): > 100 µM
TGI (U251 CNS): > 100 µM
TGI (SR leukemia): 47.5 µM
TGI (NCI-H23 lung): > 100 µM
TGI (OVCAR-4 ovarian): > 100 µM
TGI (SNB-19 CNS): > 100 µM
TGI (IGROV1 ovarian): > 100 µM
TGI (SK-MEL-28 melanoma): > 100 µM
TGI (EKVX NSCLC): > 100 µM
TGI (HT29 colon): > 100 µM
TGI (HCC-2998 colon): > 100 µM
TGI (CCRF-CEM leukemia): 51.5 µM
TGI (MDA-N): > 100 µM
TGI (HCT-15 colon): > 100 µM
TGI (MALME-3M melanoma): 84 µM
TGI (SK-OV-3 ovarian): > 100 µM
TGI (MCF7 breast): > 100 µM
TGI (SF-268 CNS): > 100 µM
TGI (NCI-H226 lung): > 100 µM
TGI (HS 578T breast): > 100 µM
TGI (OVCAR-3 ovarian): > 100 µM
TGI (COLO 205 colon): > 100 µM
TGI (KM12 colon): > 100 µM
TGI (SK-MEL-2 melanoma): > 100 µM
TGI (TK-10 renal): > 100 µM
TGI (SN12C renal): > 100 µM
TGI (A498 renal): > 100 µM
TGI (LOX IMVI melanoma): > 100 µM
TGI (HOP-62 NSCLC): > 100 µM
TGI (NCI-H522 lung): > 100 µM
TGI (A549 NSCLC): > 100 µM
TGI (HCT-116 colon): > 100 µM
TGI (NCI-H460 lung): > 100 µM
TGI (ACHN renal): > 100 µM
TGI (SF-539 CNS): 77.1 µM
TGI (MDA-MB-435): > 100 µM
TGI (SNB-75 CNS): > 100 µM
TGI (SK-MEL-5 melanoma): > 100 µM
TGI (CAKI-1 renal): > 100 µM
TGI (UO-31 renal): > 100 µM
TGI (786-0 renal): > 100 µM
TGI (MOLT-4 leukemia): > 100 µM
TGI (RXF 393 renal): > 100 µM
TGI (UACC-257 melanoma): > 100 µM
